This is an account of results in US20060148858A1, “1, 2-Azole derivatives with hypoglycemic and hypolipidemic activity” (priority 2002, published 2006).

Each structure is given as a SMILES string.

`CCCc1nn(-c2ccc(C(F)(F)F)cn2)cc1CCCOc1ccc(CC(=O)O)c(OC)c1` [Example 95, [2-methoxy-4-(3-{3-propyl-1-[5-(trifluoromethyl)-2-pyridyl]-1H-pyrazol-4-yl}propoxy)phenyl]acetic acid] had a melting point of 135 to 136 °C.

As for `CCCc1nn(-c2ccc(C(F)(F)F)cn2)cc1CCCOc1ccc(OC)c(CC(=O)O)c1` [Example 97, [2-methoxy-5-(3-{3-propyl-1-[5-(trifluoromethyl)-2-pyridinyl]-1H-pyrazol-4-yl}propoxy)phenyl]acetic acid], the melting point lay within 135 to 136 °C.

In the case of `CCOc1nn(-c2ccccn2)cc1CCCOc1cccc(OC(C)(C)C(=O)O)c1` [Example 101, 2-(3-{3-[3-ethoxy-1-(2-pyridinyl)-1H-pyrazol-4-yl]propoxy}phenoxy)-2-methylpropanoic acid], the melting point lay within 99 to 101 °C.

In turn, `CCOc1nn(-c2ccccn2)cc1CCCOc1cc(CCC(=O)O)n(-c2ccccc2)n1` [Example 103, 3-(3-{3-[3-ethoxy-1-(2-pyridinyl)-1H-pyrazol-4-yl]propoxy}-1-phenyl-1H-pyrazol-5-yl)propanoic acid] gave a melting point of 156 to 157 °C.

Regarding `CCOc1nn(-c2ccccn2)cc1CCCOc1cccc(CC(=O)O)c1` [Example 106, (3-{3-[3-ethoxy-1-(2-pyridinyl)-1H-pyrazol-4-yl]propoxy}phenyl)acetic acid], the melting point fell in the range of 66 to 67 °C.

Molecule `CCOc1cc(OCCCCc2cn(-c3ccc(C(F)(F)F)cn3)nc2OCC)ccc1CCC(=O)O` [Example 107, 3-[2-ethoxy-4-(4-{3-ethoxy-1-[5-(trifluoromethyl)-2-pyridinyl]-1H-pyrazol-4-yl}butoxy)phenyl]propanoic acid] registered a melting point of 101 to 102 °C.

In turn, `CCOc1cc(OCCCc2cn(-c3ccccn3)nc2OCC)ccc1CCC(=O)O` [Example 108, 3-(2-ethoxy-4-{3-[3-ethoxy-1-(2-pyridinyl)-1H-pyrazol-4-yl]propoxy}phenyl)propanoic acid] returned a melting point of 110 to 111 °C.

`CCOc1nn(-c2ccccn2)cc1CCCOc1ccc(CCC(=O)O)cc1OC` [Example 109, 3-(4-{3-[3-ethoxy-1-(2-pyridinyl)-1H-pyrazol-4-yl]propoxy}-3-methoxyphenyl)propanoic acid] yielded a melting point of 92 to 93 °C.

On to `CCOc1nn(-c2ccc(C(F)(F)F)cn2)cc1CCCOc1ccc(CCC(=O)O)c(OCc2ccccc2)c1` [Example 112, 3-[2-(benzyloxy)-4-(3-{3-ethoxy-1-[5-(trifluoromethyl)-2-pyridinyl]-1H-pyrazol-4-yl}propoxy)phenyl]propanoic acid], for which the melting point was in the range of 128 to 130 °C.

`CCOc1cc(OCCCc2cn(-c3ccc(C(F)(F)F)cc3)nc2OCC)ccc1CCC(=O)O` [Example 114, 3-[2-ethoxy-4-(3-{3-ethoxy-1-[4-(trifluoromethyl)phenyl]-1H-pyrazol-4-yl}propoxy)phenyl]propanoic acid] came in with a melting point of 131 to 132 °C.

For the molecule `CCOc1nn(-c2ccc(C(F)(F)F)cc2)cc1CCCOc1ccc(CCC(=O)O)cc1OC` [Example 115, 3-[4-(3-{3-ethoxy-1-[4-(trifluoromethyl)phenyl]-1H-pyrazol-4-yl}propoxy)-3-methoxyphenyl]propanoic acid], the melting point lay within 125 to 126 °C.

Consider `CCOc1nn(-c2ccc(C(F)(F)F)cn2)cc1CCCOc1cc(CC(=O)O)n(C)n1` [Example 119, [3-(3-{3-ethoxy-1-[5-(trifluoromethyl)-2-pyridinyl]-1H-pyrazol-4-yl}propoxy)-1-methyl-1H-pyrazol-5-yl]acetic acid], for which the melting point fell in the range of 151 to 152 °C.

`CCCc1nn(-c2ccc(C(F)(F)F)cn2)cc1COc1ccc(CCC(=O)O)c(OC)c1` [Example 120, 3-[2-methoxy-4-({3-propyl-1-[5-(trifluoromethyl)-2-pyridyl]-1H-pyrazol-4-yl}methoxy)phenyl]propionic acid] came in with a melting point of 153 to 154 °C.

Molecule `CCCc1nn(-c2ccc(C(F)(F)F)cn2)cc1COc1ccc(CCC(=O)O)c(C)c1` [Example 121, 3-[2-methyl-4-({3-propyl-1-[5-(trifluoromethyl)-2-pyridyl]-1H-pyrazol-4-yl}methoxy)phenyl]propionic acid] showed a melting point of 129 to 130 °C.

With `Cc1nn(-c2ccc(C(F)(F)F)cn2)cc1CCCOc1cc(CCC(=O)O)n(-c2ccccc2)n1` [Example 128, 3-[3-(3-{3-methyl-1-[5-(trifluoromethyl)-2-pyridyl]-1H-pyrazol-4-yl}propoxy)-1-phenyl-1H-pyrazol-5-yl]propionic acid], the melting point is 125 to 126 °C.

The molecule `Cc1nn(-c2ccc(C(F)(F)F)cn2)cc1CCCOc1cccc(OC(C)(C)C(=O)O)c1` [Example 130, 2-methyl-2-[3-(3-{3-methyl-1-[5-(trifluoromethyl)-2-pyridyl]-1H-pyrazol-4-yl}propoxy)phenoxy]propionic acid] returned a melting point of 107 to 108 °C.

`CCOc1nn(-c2ccc(C(F)(F)F)cn2)cc1CCCOc1ccc(OC)cc1CC(=O)O` [Example 132, [2-(3-{3-ethoxy-1-[5-(trifluoromethyl)-2-pyridyl]-1H-pyrazol-4-yl}propoxy)-5-methoxyphenyl]acetic acid] had a melting point of 138 to 139 °C.

`CC(C)(Oc1cccc(OCCCc2cn(-c3ccc(C(F)(F)F)cn3)nc2-c2ccccc2)c1)C(=O)O` [Example 133, 2-methyl-2-[3-(3-{3-phenyl-1-[5-(trifluoromethyl)-2-pyridyl]-1H-pyrazol-4-yl}propoxy)phenoxy]propionic acid] came in with a melting point of 141 to 142 °C.

Take `O=C(O)Cc1ccccc1OCCCc1cn(-c2ccc(C(F)(F)F)cn2)nc1-c1ccccc1` [Example 134, [2-(3-{3-phenyl-1-[5-(trifluoromethyl)-2-pyridyl]-1H-pyrazol-4-yl}propoxy)phenyl]acetic acid]: the melting point was in the range of 133 to 134 °C.

In turn, `CCOc1nn(-c2ccc(C(F)(F)F)cn2)cc1CCCOc1nn(C)cc1CC(=O)O` [Example 135, [3-(3-{3-ethoxy-1-[5-(trifluoromethyl)-2-pyridyl]-1H-pyrazol-4-yl}propoxy)-1-methyl-1H-pyrazol-4-yl]acetic acid] displayed a melting point of 115 to 116 °C.

`CCOc1nn(-c2ccc(C(F)(F)F)cn2)cc1CCCOc1nn(-c2ccccc2)cc1CC(=O)O` [Example 136, [3-(3-{3-ethoxy-1-[5-(trifluoromethyl)-2-pyridyl]-1H-pyrazol-4-yl}propoxy)-1-phenyl-1H-pyrazol-4-yl]acetic acid] showed a melting point of 117 to 118 °C.

As for `CCOc1nn(-c2ccc(C(F)(F)F)cn2)cc1CCCOc1ccc(Cl)cc1CC(=O)O` [Example 139, [5-chloro-2-(3-{3-ethoxy-1-[5-(trifluoromethyl)-2-pyridyl]-1H-pyrazol-4-yl}propoxy)phenyl]acetic acid], the melting point lay within 130 to 131 °C.

Take `CCOc1ccc(OCCCc2cn(-c3ccc(C(F)(F)F)cn3)nc2OCC)c(CCC(=O)O)c1` [Example 140, 3-[2-(3-{3-ethoxy-1-[5-(trifluoromethyl)-2-pyridyl]-1H-pyrazol-4-yl}propoxy)-5-ethoxyphenyl]propionic acid]: the melting point lay within 104 to 105 °C.
